Laboratory results as given in PubChem BioAssay (NCI).
Where “and” joins values, the source holds several entries; their conditions need not be identical. Equal entries are not always repeated.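 How tested: cells in 96-well plates exposed to compound for 48 hours at five concentrations. GI50 is the concentration that inhibits growth by half. TGI marks complete inhibition of growth.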

Assays:
Experiment in all cases: NCI anticancer screen, dose series, 48 h
CAKI-1 renal = test system: CAKI-1 renal
HCC-2998 colon = test system: HCC-2998 colon
HOP-92 NSCLC = test system: HOP-92 NSCLC
LOX IMVI melanoma = test system: LOX IMVI melanoma
M19-MEL melanoma = test system: M19-MEL melanoma
MALME-3M melanoma = test system: MALME-3M melanoma
NCI-H226 lung = test system: NCI-H226 lung
SNB-78 CNS = test system: SNB-78 CNS
HCT-15 colon = test system: HCT-15 colon
T-47D breast = test system: T-47D breast

## N#C/C(=C/c1ccc([N+](=O)[O-])o1)c1ccccc1
CAKI-1 renal
  TGI: > 100 µM
HCC-2998 colon
  TGI: > 100 µM
HOP-92 NSCLC
  TGI: > 100 µM
LOX IMVI melanoma
  TGI: > 100 µM
M19-MEL melanoma
  TGI: > 100 µM
MALME-3M melanoma
  TGI: > 100 µM
NCI-H226 lung
  TGI: > 100 µM
SNB-78 CNS
  TGI: > 100 µM

## C=C1C(C)C2C(Cc3ccccc3)NC(=O)C23C(OC(C)=O)C=CC(C)(O)C(=O)C(C)C/C=C/C3C1O (centres undefined)
CAKI-1 renal
  GI50: 0.05 µM
  TGI: 1.12 µM and 1.66 µM
HCC-2998 colon
  GI50: > 500 µM
  TGI: > 500 µM
HCT-15 colon
  GI50: > 500 µM
  TGI: > 500 µM
HOP-92 NSCLC
  GI50: 0.171 µM
  TGI: 2.45 µM and 1.21 µM
M19-MEL melanoma
  GI50: 57.3 µM
  TGI: 93.4 µM and > 500 µM
MALME-3M melanoma
  GI50: 61.7 µM
  TGI: > 96.7 µM and 489 µM
NCI-H226 lung
  TGI: 51.4 µM and > 500 µM
SNB-78 CNS
  TGI: 1.55 µM
T-47D breast
  GI50: 5.14 µM
  TGI: > 357 µM

## C#Cc1c(C)c(/C=C/C(C)=C\C(=O)OC)n(C)c1C
CAKI-1 renal
  TGI: > 100 µM
HCC-2998 colon
  TGI: > 100 µM
HCT-15 colon
  TGI: > 100 µM
HOP-92 NSCLC
  TGI: > 100 µM
LOX IMVI melanoma
  TGI: > 100 µM
M19-MEL melanoma
  TGI: > 100 µM
MALME-3M melanoma
  TGI: > 100 µM
NCI-H226 lung
  TGI: > 100 µM
SNB-78 CNS
  TGI: > 100 µM

## COc1cc2c(cc1O)CCN[C@@]21CS[C@H]2c3c(OC(C)=O)c(C)c4c(c3C(COC1=O)N1C2C2NC(Cc3cc(C)c(OC)c(O)c32)[C@@H]1O)OCO4 (some centres undefined)
CAKI-1 renal
  GI50: 0.000294 ng/mL
  TGI: 3.03 µM
HCT-15 colon
  GI50: 0.00461 ng/mL and 4.5 ng/mL
HOP-92 NSCLC
  GI50: 0.000135 ng/mL
  TGI: 9.17 µM and 5.9e-07 µg/mL
LOX IMVI melanoma
  GI50: 4.5 ng/mL
  TGI: 1970 ng/mL
M19-MEL melanoma
  GI50: 4.5 ng/mL
  TGI: 4.5 ng/mL
MALME-3M melanoma
  GI50: 0.000122 ng/mL
  TGI: 0.000506 ng/mL
NCI-H226 lung
  TGI: 0.000273 ng/mL
SNB-78 CNS
  GI50: 0.00037 ng/mL and 4.5 ng/mL
  TGI: 932 ng/mL
T-47D breast
  TGI: 0.0453 µM

## CCOC(=O)C1=C(C)N(NC(=O)Nc2ccccc2)C2(N)N(NC(=O)Nc3ccccc3)C(C)=C(C(=O)OCC)C12C#N (centres undefined)
CAKI-1 renal
  TGI: 40.1 µM
HCC-2998 colon
  TGI: 33.9 µM
HCT-15 colon
  TGI: 37.1 µM
HOP-92 NSCLC
  TGI: 39.4 µM
LOX IMVI melanoma
  TGI: 34 µM
M19-MEL melanoma
  TGI: 31.6 µM
MALME-3M melanoma
  TGI: 30.6 µM
NCI-H226 lung
  TGI: 36.1 µM
SNB-78 CNS
  TGI: 37.6 µM

## COc1cc(C2c3cc4c(cc3[C@@H](Nc3ccc(F)cc3)C3COC(=O)[C@H]23)OCO4)cc(OC)c1O (some centres undefined)
CAKI-1 renal
  GI50: 0.29 µM
  TGI: 4.68 µM
HCC-2998 colon
  TGI: 8.96 µM
HCT-15 colon
  TGI: 26.1 µM
HOP-92 NSCLC
  TGI: 24.8 µM
LOX IMVI melanoma
  GI50: 0.44 µM
  TGI: 10.5 µM
M19-MEL melanoma
  TGI: 42.8 µM
MALME-3M melanoma
  TGI: 13.4 µM
NCI-H226 lung
  GI50: 0.529 µM
  TGI: 0.985 µM and 5.18 µM
SNB-78 CNS
  TGI: 99.2 µM
T-47D breast
  TGI: 61.3 µM

## O=C1c2c(c3c4ccccc4n(CC4CO4)c3c3[nH]c4ccccc4c23)C(=O)N1Cc1ccccc1 (centres undefined)
CAKI-1 renal
  TGI: > 100 µM
HCC-2998 colon
  TGI: > 100 µM
HCT-15 colon
  TGI: > 100 µM
HOP-92 NSCLC
  TGI: > 100 µM
LOX IMVI melanoma
  TGI: > 100 µM
M19-MEL melanoma
  TGI: > 100 µM
MALME-3M melanoma
  TGI: > 100 µM
NCI-H226 lung
  TGI: > 100 µM
SNB-78 CNS
  TGI: > 100 µM

## CSCSCC(CO)NC(=O)/C=C/c1c(C)[nH]c(=O)[nH]c1=O (centres undefined)
CAKI-1 renal
  TGI: > 100 µM
HCC-2998 colon
  TGI: > 100 µM
HCT-15 colon
  TGI: > 100 µM
HOP-92 NSCLC
  TGI: > 100 µM
LOX IMVI melanoma
  TGI: > 100 µM
M19-MEL melanoma
  TGI: > 100 µM
MALME-3M melanoma
  TGI: > 100 µM
NCI-H226 lung
  TGI: > 100 µM
SNB-78 CNS
  TGI: > 100 µM

## CCCCCCNC(=O)CCN(C(=O)O)S(=O)(=O)c1ccc(NC(=O)c2ccccc2)cc1
CAKI-1 renal
  TGI: > 100 µM
HCC-2998 colon
  TGI: > 100 µM
HCT-15 colon
  TGI: > 58.4 µM
HOP-92 NSCLC
  TGI: > 100 µM
LOX IMVI melanoma
  TGI: > 62.2 µM
M19-MEL melanoma
  TGI: > 81.6 µM
MALME-3M melanoma
  TGI: > 100 µM
NCI-H226 lung
  TGI: > 100 µM
SNB-78 CNS
  TGI: > 100 µM

## CC(=O)O[C@H]1CSC[C@@H](OC(C)=O)C1[N+](=O)[O-] (some centres undefined)
CAKI-1 renal
  TGI: > 100 µM
HCC-2998 colon
  TGI: > 100 µM
HCT-15 colon
  TGI: 88.9 µM
HOP-92 NSCLC
  TGI: 39.7 µM
M19-MEL melanoma
  TGI: > 100 µM
MALME-3M melanoma
  TGI: 41.6 µM
NCI-H226 lung
  TGI: > 100 µM
SNB-78 CNS
  TGI: > 100 µM

## COC(=O)CC(=O)OC1C[C@@H]2CCC3C(C)(C)CCC[C@]3(C)C23CC[C@@]1(C)C3 (some centres undefined)
CAKI-1 renal
  TGI: 30.5 µM
HCC-2998 colon
  TGI: 35 µM
HCT-15 colon
  TGI: 36.1 µM
HOP-92 NSCLC
  TGI: 31.9 µM
LOX IMVI melanoma
  TGI: 32.3 µM
M19-MEL melanoma
  TGI: 36.3 µM
MALME-3M melanoma
  TGI: 32.7 µM
NCI-H226 lung
  TGI: 46.7 µM
SNB-78 CNS
  TGI: 42.5 µM
